According to paper PMC9138102, “The Role of ZIP9 and Androgen Receptor in the Establishment of Tight Junctions between Adult Rat Sertoli Cells” (Biology, 2022):
Where two headings read alike, the source gives them in different places.

Legend:
[1] = tested on: Erk1/2; assay: phospho-Erk1/2 immunofluorescence in PASC1 cells after AR or ZIP9 silencing; format: cell-based, rat; conditions: 10 nM testosterone or 10 µM IAPG, 24 h
Method: (§1) PASC1 cells were plated at a density of 3.0 × 10^4 on 24-well plates (1 mL/well) and incubated 48 h at 37 °C and 5% CO2 until a confluence of roughly 80% was reached. Cells were rinsed with DPBS and fixed with 100% ice-cold methanol (Roth, Karlsruhe, Germany) on ice for 10 min directly or after stimulation with vehicle, 10 nM testosterone, or 1 µM P1 for 24 h. Cells were then washed with DPBS three times for 5 min, and then incubated in blocking solution (PBS with 3% BSA and 0.3% Triton X-100, both from Sigma-Aldrich) for 1 h at room temperature. The blocking solution was replaced by fresh blocking solution containing the primary antibodies for detection of either AR, p-Erk1/2, p-CREB/p-ATF-1, claudin-1 (Cldn-1), or zonula occludens-1 (ZO-1) (Supplementary Table S1) and incubated overnight at 4 °C. Cells were washed 3 times with DPBS for 3 min each at RT on an orbital shaker, freshly made blocking solution with the appropriate Alexafluor 488-conjugated donkey anti-rabbit secondary antibody was added for 1 h at room temperature on an orbital shaker. After washing 3 times with DPBS, images were obtained using an inverse Olympus IX81 microscope equipped with a fluorescence system. […] The data obtained were analyzed by GraphPad Prism5 (GraphPad Software, Inc., La Jolla, CA, USA).
(§2) For silencing ZIP9 or AR expression, PASC1 cells were treated with commercially available siRNA directed against the expression of ZIP9 or the AR by following the manufacturer’s protocol (Silencer ® Select, siRNA Invitrogen, Darmstadt, Germany). The following oligonucleotides were used: 5′ […]tt3′ and 5′ […]ta 3′ (ZIP9-siRNA for ZIP9 silencing) and 5′[…]tt3′ plus 5′ […]ag 3′ (AR-siRNA for AR silencing). Negative control siRNA (nc-siRNA) was provided in the siRNA kit from the same manufacturer. After incubation of PASC1 for 48 h with ZIP9-siRNA, AR-siRNA, or nc-siRNA, preparation of samples for qRT-PCR, TER measurement, or immunofluorescence experiments were carried out as described above.

[2] = tested on: CREB/ATF-1; assay: p-CREB/p-ATF-1 immunofluorescence in PASC1 cells after AR or ZIP9 silencing; format: cell-based, rat; conditions: 10 nM testosterone or 10 µM IAPG, 24 h, n = 3 × 25
[3] = tested on: ZO-1; assay: ZO-1 expression in PASC1 cells, immunofluorescence; format: cell-based, rat; conditions: 10 nM testosterone or 10 µM IAPG, 24 h, n = 3 × 25
Method: as §1, with “Cells were rinsed with DPBS and fixed with 100% ice-cold methanol (Roth, Karlsruhe, Germany) on ice for 10 min directly or after stimulation with vehicle, 10 nM testosterone, or 1 µM P1 for 24 h.” left out
as §2

[4] = tested on: PASC1 cells; assay: Transepithelial electrical resistance (TER) across PASC1 cell layers; format: cell-based, rat; conditions: 10 nM testosterone or 10 µM IAPG, 0, 24, 48, 72 h, n = 6, means ± SEM
Method: TER measurements were performed as described. Briefly, 6.0 × 10^4 cells/cm^2 of androgen receptor (AR)- or ZIP9-knockdown PASC1 or non-treated PASC1 cells were seeded on 0.4 μm inserts of 24-well plates (Greiner bio one, Frickenhausen, Germany) and cultured for 48 h until they reached confluence. […] As testosterone was dissolved in ethanol (vehicle), the same volume of ethanol was added to the peptide-treated cells and untreated controls. TER measurements were made with a Millicell ERS-2 epithelial Volt-Ohm meter (Merck Millipore, Darmstadt, Germany). ΩXcm^2 was calculated according to the protocol of the manufacturer by setting the resistance of cell-free inserts to zero.
as §2

[5] = tested on: Erk1/2; set-up: method as in PMID 35053053; conditions: Sertoli cell line 93RS2, cited from earlier work
Text: Activation of Erk1/2 by phosphorylation occurs in the so-called non-classical signaling pathway of testosterone.

[6] = tested on: Sertoli cell line 93RS2; conditions: 93RS2 cells; ZIP9-mediated; cited from earlier work
Text: The testosterone receptor responsible for the stimulation of the expression of TJ proteins and the formation of the BTB, however, remains to be defined. The classical androgen receptor (AR) has for decades been undisputed as the mediator of all testosterone effects, including the stimulation of TJ formation at the BTB; however, recent investigations have challenged this assumption. ZIP9, a rather recently identified membrane-bound androgen receptor and zinc transporter from the family of ZRT/IRT-like proteins (ZRT = zinc-regulated transporter; IRT = iron-regulated transporter) ...

[7] = exogenous testosterone; cited from earlier work

| Molecule | Stimulatory effect on Erk1/2 phosphorylation, nc-siRNA versus AR-siRNA [1] | Erk1/2 phosphorylation (green fluorescence) ([1]; AR-siRNA, ** p ≤ 0.01) | Erk1/2 phosphorylation (green fluorescence) ([1]; ZIP9-siRNA, ns) | Erk1/2 phosphorylation (green fluorescence) ([1]; nc-siRNA, ** p ≤ 0.01) | CREB/ATF-1 phosphorylation ([2]; AR-siRNA) | CREB/ATF-1 phosphorylation ([2]; ZIP9-siRNA) | CREB/ATF-1 phosphorylation ([2]; nc-siRNA) | Stimulated ZO-1 fluorescence, nc-siRNA versus AR-siRNA [3] | ZO-1 expression (fluorescence signal) ([3]; ZIP9-siRNA) | ZO-1 expression (fluorescence signal) ([3]; nc-siRNA) | TJ formation (TER) ([4]; AR-siRNA) | TJ formation (TER) ([4]; ZIP9-siRNA) | TJ formation (TER) ([4]; nc-siRNA) | other results |
| --- | --- | --- | --- | --- | --- | --- | --- | --- | --- | --- | --- | --- | --- | --- |
| C[C@]12CC[C@H]3[C@@H](CCC4=CC(=O)CC[C@@]43C)[C@@H]1CC[C@@H]2O [testosterone] | not significantly different from each other | responded with augmented phosphorylation of Erk1/2 | entirely prevented stimulation of Erk1/2 phosphorylation | low (Figure 6A) relative to the signal obtained in cells exposed to testosterone | to the same extent as cells treated with nc-siRNA | failed to stimulate phosphorylation of CREB/ATF-1 | stimulated CREB/ATF-1 phosphorylation | not significantly different | The ZO-1 fluorescence was unchanged by the ligands | the ZO-1-corresponding signal was significantly intensified | had the same effect | failed to stimulate TJ formation | tighter TJ than the control already after 1 day of treatment, as demonstrated by increased TER | Concentration for maximum Erk1/2 phosphorylation ([5]; testosterone): 0.01 µM; Expression of claudin-1 and claudin-5 [6]: increased expression of claudin-1 and claudin-5; TJ formation [6]: enhanced TJ formation; Effect on hypothalamic–pituitary–gonadal axis hormones [7]: prevents GnRH release from the hypothalamus and FSH and LH from the pituitary, leading to the impairment of testosterone production in Leydig cells; Effect on male fertility [7]: unfavorably affects male fertility; Germ cell production [7]: germ cell production under these conditions is halted; Severe side effects [7]: polycythemia, cardiac hypertrophy, and myocardial infarction |
| IAPG | not significantly different from each other | responded with augmented phosphorylation of Erk1/2 | entirely prevented stimulation of Erk1/2 phosphorylation | low (Figure 6A) relative to the signal obtained in cells exposed to testosterone (Figure 6B) or IAPG | to the same extent as cells treated with nc-siRNA | failed to stimulate phosphorylation of CREB/ATF-1 | stimulated CREB/ATF-1 phosphorylation | not significantly different | The ZO-1 fluorescence was unchanged by the ligands | the ZO-1-corresponding signal was significantly intensified | had the same effect | failed to stimulate TJ formation | tighter TJ than the control already after 1 day of treatment, as demonstrated by increased TER | Concentration for maximum Erk1/2 phosphorylation ([5]; IAPG): 10 µM |
